Measured values from patent US20090246302A1, “COMPOSITION AND METHOD FOR PROTECTING AGRICULTURAL CROPS AND/OR AGRICULTURAL PRODUCTS” (priority 2008, published 2009).
Read-outs that look alike come from different tables or passages of the source.

Experiments:
Format in all cases: in vivo
[1] = test system: T. granarium adult; conditions: field evaluation, dosage of 25 mg/25 Kg
[2] = test system: C. cephalonica larvae; conditions: field evaluation, dosage of 25 mg/25 Kg
[3] = test system: S. oryzae; conditions: field evaluation, dosage of 25 mg/25 Kg
[4] = test system: C. chinensis adult; conditions: field evaluation, dosage of 25 mg/25 Kg
[5] = test system: T. granarium adult; experiment: whole plant or invertebrate; conditions: Trogoderma granarium, read-out: Mean (%) mortality of insects, laboratory trials; for mortality at 750 mg/kg: dosage of 750 mg/kg; for mortality at 1000 mg/kg: dosage of 1 g/kg
Protocol: (§1) The composition for protecting agricultural products was prepared. A new method was employed using rice bran, as carrier material. 500 g of clean and uncontaminated rice bran collected from the rice mills was completely dehydrated by sun drying. 25 g of the botanical extract of the P. betel in 125 ml of acetone was sprayed uniformly on to the rice bran. Mixed manually and allowed to shade dry for about 20 min.

[6] = test system: C. cephalonica larvae; experiment: whole plant or invertebrate; conditions: Corcyra cephalonica, read-out: Mean (%) mortality of insects, laboratory trials; for mortality at 750 mg/kg: dosage of 750 mg/kg; for mortality at 1000 mg/kg: dosage of 1 g/kg
Protocol: as §1

[7] = test system: S. oryzae; experiment: whole plant or invertebrate; conditions: Sitophilus oryzae, laboratory trials, read-out: Mean (%) mortality of insects; for mortality at 750 mg/kg: dosage of 750 mg/kg; for mortality at 1000 mg/kg: dosage of 1 g/kg
Protocol: as §1

[8] = test system: C. chinensis adult; experiment: whole plant or invertebrate; conditions: Callosobruchus chinensis, read-out: Mean (%) mortality of insects, laboratory trials; for mortality at 750 mg/kg: dosage of 750 mg/kg; for mortality at 1000 mg/kg: dosage of 1 g/kg
Protocol: as §1

Compound: C=CCc1ccc(O)c(OC)c1 [Eugenol, 4-Allyl-2-methoxyphenol]
- Mean (%) mortality of insects ([1]; 1st week): 100%
- Mean (%) mortality of insects ([1]; 2nd week): 100%
- Mean (%) mortality of insects ([1]; 3rd week): 72%
- Mean (%) mortality of insects ([1]; 4th week): 42%
- Mean (%) mortality of insects ([1]; 5th week): 20%
- Mean (%) mortality of insects ([1]; 6th week): 0%
- Mean (%) mortality of insects ([1]; 7th week): 0%
- Mean (%) mortality of insects ([2]; 1st week): 100%
- Mean (%) mortality of insects ([2]; 2nd week): 100%
- Mean (%) mortality of insects ([2]; 3rd week): 89%
- Mean (%) mortality of insects ([2]; 4th week): 66%
- Mean (%) mortality of insects ([2]; 5th week): 23%
- Mean (%) mortality of insects ([2]; 6th week): 0%
- Mean (%) mortality of insects ([2]; 7th week): 0%
- Mean (%) mortality of insects ([3]; 1st week): 100%
- Mean (%) mortality of insects ([3]; 2nd week): 100%
- Mean (%) mortality of insects ([3]; 3rd week): 85%
- Mean (%) mortality of insects ([3]; 4th week): 50%
- Mean (%) mortality of insects ([3]; 6th week): 0%
- Mean (%) mortality of insects ([3]; 7th week): 0%
- Mean (%) mortality of insects ([4]; 1st week): 100%
- Mean (%) mortality of insects ([4]; 2nd week): 100%
- Mean (%) mortality of insects ([4]; 3rd week): 100%
- Mean (%) mortality of insects ([4]; 4th week): 53%
- Mean (%) mortality of insects ([4]; 5th week): 39%
- Mean (%) mortality of insects ([4]; 6th week): 12.4%
- Mean (%) mortality of insects ([4]; 7th week): 0%
- mortality at 750 mg/kg ([5]; 1st week): 100%
- mortality at 750 mg/kg ([5]; 2nd week): 100%
- mortality at 750 mg/kg ([5]; 3rd week): 26%
- mortality at 750 mg/kg ([5]; 4th week): 13.3%
- mortality at 750 mg/kg ([5]; 5th week): 0%
- mortality at 750 mg/kg ([5]; 6th week): 0%
- mortality at 1000 mg/kg ([5]; 1st week): 100%
- mortality at 1000 mg/kg ([5]; 2nd week): 100%
- mortality at 1000 mg/kg ([5]; 3rd week): 40%
- mortality at 1000 mg/kg ([5]; 4th week): 23%
- mortality at 1000 mg/kg ([5]; 5th week): 0%
- mortality at 1000 mg/kg ([5]; 6th week): 0%
- mortality at 750 mg/kg ([6]; 1st week): 100%
- mortality at 750 mg/kg ([6]; 2nd week): 100%
- mortality at 750 mg/kg ([6]; 3rd week): 53.3%
- mortality at 750 mg/kg ([6]; 4th week): 13.3%
- mortality at 750 mg/kg ([6]; 5th week): 0%
- mortality at 750 mg/kg ([6]; 6th week): 0%
- mortality at 1000 mg/kg ([6]; 1st week): 100%
- mortality at 1000 mg/kg ([6]; 2nd week): 100%
- mortality at 1000 mg/kg ([6]; 3rd week): 74%
- mortality at 1000 mg/kg ([6]; 4th week): 29%
- mortality at 1000 mg/kg ([6]; 5th week): 13.3%
- mortality at 1000 mg/kg ([6]; 6th week): 0%
- mortality at 750 mg/kg ([7]; 1st week): 100%
- mortality at 750 mg/kg ([7]; 2nd week): 100%
- mortality at 750 mg/kg ([7]; 3rd week): 40%
- mortality at 750 mg/kg ([7]; 4th week): 20%
- mortality at 750 mg/kg ([7]; 5th week): 0%
- mortality at 750 mg/kg ([7]; 6th week): 0%
- mortality at 1000 mg/kg ([7]; 1st week): 100%
- mortality at 1000 mg/kg ([7]; 2nd week): 100%
- mortality at 1000 mg/kg ([7]; 3rd week): 40%
- mortality at 1000 mg/kg ([7]; 4th week): 35%
- mortality at 1000 mg/kg ([7]; 5th week): 25%
- mortality at 1000 mg/kg ([7]; 6th week): 0%
- mortality at 750 mg/kg ([8]; 1st week): 100%
- mortality at 750 mg/kg ([8]; 2nd week): 100%
- mortality at 750 mg/kg ([8]; 3rd week): 58.4%
- mortality at 750 mg/kg ([8]; 4th week): 20%
- mortality at 750 mg/kg ([8]; 5th week): 0%
- mortality at 750 mg/kg ([8]; 6th week): 0%
- mortality at 1000 mg/kg ([8]; 1st week): 100%
- mortality at 1000 mg/kg ([8]; 2nd week): 100%
- mortality at 1000 mg/kg ([8]; 3rd week): 63%
- mortality at 1000 mg/kg ([8]; 4th week): 35%
- mortality at 1000 mg/kg ([8]; 5th week): 20%
- mortality at 1000 mg/kg ([8]; 6th week): 0%
